The values below are quoted from earlier work in patent publication US20250134887A1, “METHODS OF TREATING PROSTATE CANCER” (AstraZeneca AB, priority 2022, published 2025).

The data set deals with patients with mCRPC harboring BRCA1, BRCA2 and ATM mutations. To be noted: disease had progressed on NHA; vs. enzalutamide or abiraterone; cited from earlier work.

As for `O=C(c1cc(Cc2n[nH]c(=O)c3ccccc23)ccc1F)N1CCN(C(=O)C2CC2)CC1` [olaparib, 4-[(3-{[4-(cyclopropane-carbonyl)piperazine-1-yl]carbonyl}-4-fluorophenyl)methyl]-2H-phthalazin-1-one], the “imaging-based progression-free survival and overall survival” value is “imaging-based progression-free survival and overall survival benefits”.
